From PubChem BioAssay AID1259375 (The Scripps Research Institute Molecular Screening Center, 2018)
pIC50: −log10 of the molar value. Activity calls are given as the source filed them. How the calls were made is not given here.

These molecules were tested against Microphthalmia-associated transcription factor (Homo sapiens) (UniProt O75030) (assay: MITF inhibitors by FRET titration, dose response, biochemical, high throughput (AID 1259375;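 further: FRET between CFP-tagged and YFP-tagged MITF protein partners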)). Conditions: FRET biochemical assay, MITF inhibition.
Sequence of Microphthalmia-associated transcription factor (Homo sapiens) (O75030 whole entry, looked up): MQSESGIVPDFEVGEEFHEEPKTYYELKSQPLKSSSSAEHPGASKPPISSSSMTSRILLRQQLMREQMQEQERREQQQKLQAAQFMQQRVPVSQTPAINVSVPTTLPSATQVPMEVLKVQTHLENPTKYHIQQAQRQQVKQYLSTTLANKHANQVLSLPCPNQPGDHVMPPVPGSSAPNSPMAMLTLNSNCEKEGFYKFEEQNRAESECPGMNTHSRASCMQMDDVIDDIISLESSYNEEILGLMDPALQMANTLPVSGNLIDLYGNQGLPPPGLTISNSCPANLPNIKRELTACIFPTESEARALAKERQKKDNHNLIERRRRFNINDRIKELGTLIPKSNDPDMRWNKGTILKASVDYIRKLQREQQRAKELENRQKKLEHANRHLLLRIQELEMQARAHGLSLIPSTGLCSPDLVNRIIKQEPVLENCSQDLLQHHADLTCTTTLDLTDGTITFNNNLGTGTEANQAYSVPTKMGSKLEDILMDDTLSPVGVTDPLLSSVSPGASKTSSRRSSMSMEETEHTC

SMILES	IC50	pIC50
c1ccc(COc2ccc(OCCCCn3ccnc3)cc2)cc1	> 6.48 µM (inactive)	
COc1cc(C(=O)N2CCN(Cc3ccccc3C)CC2)cc(OC)c1OC	> 5.62 µM (inactive)	
O=C1N[C@@H](COCc2ccccc2)C(=O)N2CCN(C(=O)NC3CCCCC3)C[C@H]12	> 6.48 µM (inactive)	
Nc1cccc(N2C(=O)c3cc(S(=O)O)cc4c(N)c(S(=O)O)cc(c34)C2=O)c1	> 6.48 µM (inactive)	
O=c1c(O)c(-c2ccc(O)cc2O)oc2cc(O)cc(O)c12	> 6.48 µM (inactive)	
COc1cc(OC)c(C(=O)OC2CCCC2=O)cc1OC (configuration not stated)	> 7.05 µM (inactive)	
CC(C)[C@H]1NC(=O)[C@H]2CN(C(=O)NC3CCCCC3)CCN2C1=O	> 6.48 µM (inactive)	
COC(=O)CSc1nnc(-c2cnccn2)n1C	> 6.48 µM (inactive)	
NC(=O)COC(=O)c1cc2c(s1)CCC2	> 6.91 µM (inactive)	
COc1ccccc1C1(NC(=O)CCCCC2SCC3NC(=O)NC32)CCCC1 (configuration not stated)	> 6.48 µM (inactive)	
O=C(COC(=O)/C=C/c1ccco1)COC(=O)/C=C/c1ccco1	> 7.07 µM (inactive)	
CCOC1=CC(c2ccc3c(c2)OCO3)CC(=O)c2c(C)oc(C)c21 (configuration not stated)	> 6.48 µM (inactive)	
CC(=C/C(=O)O)/C=C/c1ccoc1	> 9.75 µM (inactive)	
CCN1CCN(Cc2coc3ccccc3c2=O)CC1	> 6.48 µM (inactive)	

Second part, the molecule after the results:

IC50	pIC50	SMILES
inactive		CCCCOc1ccc(C(=O)N/C(=C/c2ccco2)C(=O)O)cc1
inactive		O=c1[nH]c(/C=C/c2ccco2)nc(O)c1[N+](=O)[O-]
> 6.48 µM (inactive)		Cc1n[nH]c(=O)nc1NNc1ccc(C(=O)O)cc1
> 6.48 µM (inactive)		CN(Cc1ccco1)S(=O)(=O)c1ccc2[nH]cc(C(=O)O)c(=O)c2c1
> 7.56 µM (inactive)		O=C(Nc1ccc(N2CCOCC2)cc1)c1cccc(Nc2ccncn2)n1
> 6.48 µM (inactive)		N#C/C(=C/c1ccco1)c1cccc(F)c1
	5.71	Nc1ccc(C(=O)O)c(O)c1
> 6.94 µM (inactive)		O=C(COC(=O)c1cc(-c2ccco2)nc2ccccc12)NC1CC1
